Laboratory results reported in ChEMBL document CHEMBL5728723, “Pyrimidine compounds and pyrimido indole compounds and methods of use” (2021).

Assays:
[1] = molecular target: Platelet-derived growth factor receptor beta (Homo sapiens, UniProt P09619); assay: (§1) Kinase Inhibition Assay: Table 9: Compounds 1 and 2, Section D., (see FIG. 4, bottom row, far right column) each inhibit VEGFR-2 and PDGFR-β for antiangiogenic effects and also inhibit human TS (hTS) for cytotoxic effects in single agents.12 The inhibitory potency of both these single agents against VEGFR-2, PDGFR-β, and hTS was better than or close to standards (Tables 9, 10).
[2] = molecular target: Vascular endothelial growth factor receptor 1 (Homo sapiens, UniProt P17948); assay: as §1
[3] = molecular target: Vascular endothelial growth factor receptor 2 (Homo sapiens, UniProt P35968); assay: as §1
[4] = molecular target: Epidermal growth factor receptor (Homo sapiens, UniProt P00533); assay: as §1
Epidermal growth factor receptor, sequence (P00533 whole entry): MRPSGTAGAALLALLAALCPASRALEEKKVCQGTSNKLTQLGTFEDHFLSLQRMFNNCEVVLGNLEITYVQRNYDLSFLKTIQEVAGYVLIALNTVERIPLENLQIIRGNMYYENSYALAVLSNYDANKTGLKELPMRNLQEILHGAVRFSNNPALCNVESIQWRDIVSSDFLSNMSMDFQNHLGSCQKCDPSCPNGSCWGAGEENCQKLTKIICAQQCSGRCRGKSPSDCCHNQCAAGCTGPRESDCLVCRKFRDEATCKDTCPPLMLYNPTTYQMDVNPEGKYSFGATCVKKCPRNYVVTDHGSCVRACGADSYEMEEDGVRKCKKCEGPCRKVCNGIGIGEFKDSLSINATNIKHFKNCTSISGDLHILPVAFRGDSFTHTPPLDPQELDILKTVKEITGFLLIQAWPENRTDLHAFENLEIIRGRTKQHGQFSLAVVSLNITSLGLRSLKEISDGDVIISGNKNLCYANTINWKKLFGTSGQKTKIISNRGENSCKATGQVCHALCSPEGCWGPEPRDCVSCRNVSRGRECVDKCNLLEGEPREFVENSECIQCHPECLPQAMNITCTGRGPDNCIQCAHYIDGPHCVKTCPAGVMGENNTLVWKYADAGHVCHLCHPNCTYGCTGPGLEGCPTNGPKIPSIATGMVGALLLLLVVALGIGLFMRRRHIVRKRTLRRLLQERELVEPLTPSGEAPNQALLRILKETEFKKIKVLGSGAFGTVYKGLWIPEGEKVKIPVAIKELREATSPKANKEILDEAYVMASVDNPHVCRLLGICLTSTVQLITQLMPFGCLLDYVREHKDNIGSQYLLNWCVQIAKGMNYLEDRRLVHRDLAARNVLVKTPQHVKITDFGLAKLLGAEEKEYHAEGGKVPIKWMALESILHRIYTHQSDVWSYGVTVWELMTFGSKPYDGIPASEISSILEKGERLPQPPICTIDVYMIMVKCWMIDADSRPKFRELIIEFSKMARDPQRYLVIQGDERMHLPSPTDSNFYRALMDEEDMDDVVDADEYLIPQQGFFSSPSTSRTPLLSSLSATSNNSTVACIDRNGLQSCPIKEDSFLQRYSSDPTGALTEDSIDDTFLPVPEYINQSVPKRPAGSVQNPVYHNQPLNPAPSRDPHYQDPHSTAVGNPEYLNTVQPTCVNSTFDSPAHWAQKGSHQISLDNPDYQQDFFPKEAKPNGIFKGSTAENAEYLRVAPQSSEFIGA

Vascular endothelial growth factor receptor 2, sequence (P35968 whole entry): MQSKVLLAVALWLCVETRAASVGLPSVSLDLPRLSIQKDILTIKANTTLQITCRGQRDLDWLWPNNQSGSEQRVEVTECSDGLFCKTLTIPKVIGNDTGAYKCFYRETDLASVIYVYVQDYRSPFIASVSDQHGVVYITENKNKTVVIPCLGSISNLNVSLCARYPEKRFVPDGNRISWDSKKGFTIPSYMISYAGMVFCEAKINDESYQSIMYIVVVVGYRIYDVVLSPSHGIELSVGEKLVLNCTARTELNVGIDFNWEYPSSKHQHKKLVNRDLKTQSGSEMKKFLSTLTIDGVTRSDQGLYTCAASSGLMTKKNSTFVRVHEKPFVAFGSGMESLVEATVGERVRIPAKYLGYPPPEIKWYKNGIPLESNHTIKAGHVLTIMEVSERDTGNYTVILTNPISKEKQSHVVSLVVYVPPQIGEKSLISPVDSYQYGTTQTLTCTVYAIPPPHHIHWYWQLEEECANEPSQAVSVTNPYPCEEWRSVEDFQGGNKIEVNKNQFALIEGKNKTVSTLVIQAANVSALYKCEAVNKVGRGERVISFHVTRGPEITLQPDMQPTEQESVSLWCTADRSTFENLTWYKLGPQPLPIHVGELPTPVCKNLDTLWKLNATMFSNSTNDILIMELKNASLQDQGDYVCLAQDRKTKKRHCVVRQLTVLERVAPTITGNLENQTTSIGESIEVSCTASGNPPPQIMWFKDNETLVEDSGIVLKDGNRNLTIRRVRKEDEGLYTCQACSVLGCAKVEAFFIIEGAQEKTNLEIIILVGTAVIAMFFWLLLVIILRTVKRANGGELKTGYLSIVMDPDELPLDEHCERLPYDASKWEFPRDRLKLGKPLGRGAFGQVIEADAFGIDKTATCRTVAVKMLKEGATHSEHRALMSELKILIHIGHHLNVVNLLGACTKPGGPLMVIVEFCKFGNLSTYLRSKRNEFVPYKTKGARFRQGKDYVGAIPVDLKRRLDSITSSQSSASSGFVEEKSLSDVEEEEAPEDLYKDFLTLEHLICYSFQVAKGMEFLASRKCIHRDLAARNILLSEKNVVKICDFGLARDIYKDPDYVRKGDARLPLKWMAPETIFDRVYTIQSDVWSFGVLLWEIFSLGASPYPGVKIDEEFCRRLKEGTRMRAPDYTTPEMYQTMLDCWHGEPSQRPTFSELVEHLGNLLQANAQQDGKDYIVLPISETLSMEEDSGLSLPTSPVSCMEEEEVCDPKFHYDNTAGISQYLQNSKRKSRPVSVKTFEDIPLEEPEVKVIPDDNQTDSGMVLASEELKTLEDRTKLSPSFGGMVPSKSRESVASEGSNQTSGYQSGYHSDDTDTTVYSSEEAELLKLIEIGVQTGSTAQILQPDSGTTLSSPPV
Platelet-derived growth factor receptor beta, sequence (P09619 whole entry): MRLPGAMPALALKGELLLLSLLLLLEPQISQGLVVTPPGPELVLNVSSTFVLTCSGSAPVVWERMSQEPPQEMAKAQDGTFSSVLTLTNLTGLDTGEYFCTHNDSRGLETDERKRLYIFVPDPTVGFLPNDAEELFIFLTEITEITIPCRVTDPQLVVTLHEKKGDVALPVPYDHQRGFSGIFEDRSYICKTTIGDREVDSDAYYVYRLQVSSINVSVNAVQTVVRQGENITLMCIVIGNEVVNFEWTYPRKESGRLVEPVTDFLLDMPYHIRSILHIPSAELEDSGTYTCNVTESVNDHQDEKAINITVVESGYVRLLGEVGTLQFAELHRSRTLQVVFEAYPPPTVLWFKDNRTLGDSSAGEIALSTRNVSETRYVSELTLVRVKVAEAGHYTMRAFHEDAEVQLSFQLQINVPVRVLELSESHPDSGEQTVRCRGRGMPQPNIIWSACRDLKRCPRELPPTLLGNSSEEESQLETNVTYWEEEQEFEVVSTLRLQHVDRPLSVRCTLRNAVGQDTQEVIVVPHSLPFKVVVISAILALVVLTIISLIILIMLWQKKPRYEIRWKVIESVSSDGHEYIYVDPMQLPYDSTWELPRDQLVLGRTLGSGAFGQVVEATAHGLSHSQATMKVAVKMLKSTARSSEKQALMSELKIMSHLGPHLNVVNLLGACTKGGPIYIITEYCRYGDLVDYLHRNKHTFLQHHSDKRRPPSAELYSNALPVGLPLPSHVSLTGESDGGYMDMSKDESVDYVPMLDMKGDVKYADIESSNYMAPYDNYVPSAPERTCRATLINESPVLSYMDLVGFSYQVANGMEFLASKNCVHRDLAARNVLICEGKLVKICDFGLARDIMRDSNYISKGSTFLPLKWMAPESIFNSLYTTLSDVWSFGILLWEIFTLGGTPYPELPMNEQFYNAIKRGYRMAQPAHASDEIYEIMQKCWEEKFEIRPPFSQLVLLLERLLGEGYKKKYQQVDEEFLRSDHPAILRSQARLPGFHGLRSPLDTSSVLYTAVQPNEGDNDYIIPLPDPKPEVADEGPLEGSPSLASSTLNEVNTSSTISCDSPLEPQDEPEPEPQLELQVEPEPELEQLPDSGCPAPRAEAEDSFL
Vascular endothelial growth factor receptor 1, sequence (P17948 whole entry): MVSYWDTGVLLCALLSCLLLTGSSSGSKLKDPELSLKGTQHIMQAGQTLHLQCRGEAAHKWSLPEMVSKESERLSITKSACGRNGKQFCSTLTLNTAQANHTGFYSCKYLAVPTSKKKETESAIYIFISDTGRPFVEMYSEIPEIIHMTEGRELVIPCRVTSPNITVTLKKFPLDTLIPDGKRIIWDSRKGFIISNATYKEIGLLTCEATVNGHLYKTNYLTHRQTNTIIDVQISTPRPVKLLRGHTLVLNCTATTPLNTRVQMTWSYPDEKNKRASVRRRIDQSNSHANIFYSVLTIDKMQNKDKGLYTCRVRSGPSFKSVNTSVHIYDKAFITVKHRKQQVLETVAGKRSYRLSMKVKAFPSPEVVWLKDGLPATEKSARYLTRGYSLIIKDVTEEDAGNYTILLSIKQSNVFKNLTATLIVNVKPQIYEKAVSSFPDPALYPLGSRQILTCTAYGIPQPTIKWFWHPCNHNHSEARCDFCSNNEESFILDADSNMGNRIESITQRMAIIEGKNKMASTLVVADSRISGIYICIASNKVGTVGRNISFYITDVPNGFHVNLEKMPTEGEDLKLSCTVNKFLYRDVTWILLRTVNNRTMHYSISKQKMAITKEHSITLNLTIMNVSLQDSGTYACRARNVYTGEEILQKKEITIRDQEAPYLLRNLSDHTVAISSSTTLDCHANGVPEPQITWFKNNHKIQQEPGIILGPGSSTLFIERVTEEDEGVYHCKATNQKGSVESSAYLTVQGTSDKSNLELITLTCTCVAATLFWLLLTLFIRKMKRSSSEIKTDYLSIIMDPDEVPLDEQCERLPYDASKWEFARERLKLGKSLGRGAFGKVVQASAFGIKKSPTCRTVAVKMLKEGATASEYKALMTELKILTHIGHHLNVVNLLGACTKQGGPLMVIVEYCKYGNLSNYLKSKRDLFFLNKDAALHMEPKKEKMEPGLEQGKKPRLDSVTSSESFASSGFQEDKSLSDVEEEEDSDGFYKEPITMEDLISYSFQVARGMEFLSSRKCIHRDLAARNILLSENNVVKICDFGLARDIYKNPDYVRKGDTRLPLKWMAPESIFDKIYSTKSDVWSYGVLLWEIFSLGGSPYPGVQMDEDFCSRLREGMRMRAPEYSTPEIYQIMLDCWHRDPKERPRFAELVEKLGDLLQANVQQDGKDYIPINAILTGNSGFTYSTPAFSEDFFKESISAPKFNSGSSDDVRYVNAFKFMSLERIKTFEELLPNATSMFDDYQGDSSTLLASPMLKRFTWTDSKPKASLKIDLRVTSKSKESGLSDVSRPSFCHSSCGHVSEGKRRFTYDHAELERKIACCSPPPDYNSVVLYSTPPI

SMILES | IC50 [1] | IC50 [2] | IC50 [3] | IC50 [4]
COc1ccc(Sc2sc3nc(N)nc(N)c3c2C)cc1OC | 2.8 µM | 118 µM | 22.6 µM | –
COc1cccc(Sc2sc3nc(N)nc(N)c3c2C)c1 | 40.3 µM | 160 µM | 56.3 µM | 10.4 µM
